The results in this text go back to patent publication EP1120414A1, “DISUBSTITUTED MALEIMIDE COMPOUNDS AND MEDICINAL UTILIZATION THEREOF” (Japan Tobacco Inc., priority 1998, dated 2000).

Read-outs that look alike come from different tables or passages of the source.

The target of test [1] is T1, PKC β II (Homo sapiens, UniProt P05771).
T1 construct: purchased CALBIOCHEM
The test can be described thus: PKC enzyme assay (BIOTRAK Protein kinase C enzyme assay system, 32P-ATP phosphorylation of peptide […]). Type of test: biochemical. The conditions noted are these: for Ratio α/β: IC50 PKC α / IC50 PKC β II. The text has this:
The method for determining the PKC inhibitory activity of the compound of the present invention is explained in the following. Inasmuch as PKCβII is present in greater number in intravascular cells than PKCβI, PKCβII was mainly used here to test the enzyme activity.
(§1) As the reagent for enzyme assay, BIOTRAK Protein kinase C enzyme assay system (hereinafter the system, Amersham), and as the PKC enzyme standard product, Protein Kinase C, Human Recombinant (CALBIOCHEM) were purchased and used in the assay. A substrate mixture was prepared by mixing calcium buffer (12 mM calcium acetate, 50 mM Tris/HCl pH 7.5, 0.05% (w/v) sodium azide), Lipid (0.3 mg/ml La-phosphatidyl-L-serine, […] phorbol 12-myristate 13-acetate, 50 mM Tris/HCl pH 7.5, 0.05% (w/v) sodium azide), peptide buffer (900 µM peptide […]), 50 mM Tris/HCl pH 7.5, 0.05% (w/v) sodium azide), DTT buffer (30 mM dithiothreitol, 50 mM Tris/HCl pH 7.5, 0.05% (w/v) sodium azide), and magnesium ATP buffer (1.2 mM ATP, […] pH 7.4, 72 mM magnesium chloride) all attached to the system in a ratio of 1:1:1:1:0.8 and adding [ y -32P]ATP (Amersham, cat. […] The PKC enzyme standard product was diluted with an assay buffer (10 mM Hepes pH 7.4, 0.01% Triton X-100) to a concentration of 400 ng/ml and used as the enzyme solution. The substrate mixture and a test substance (diluted to the final concentration of 1 nM-10 µM with dimethyl sulfoxide (DMSO)) were mixed at a ratio of 20:1. The enzyme solution was added in the amount equivalent to the substrate mixture and mixed, which was followed by incubation at 37°C for 15 minutes. The reaction terminator (300 mM orthophosphoric acid containing carmosine red) attached to the system was added in the amount equivalent to the substrate mixture to end the reaction, and the reaction mixture was spotted on a phosphocellulose paper (Whatman, P-81), washed twice with 75 mM orthophosphoric acid and assayed for radioactivity by BAS2000 (Fuji film).
(§2) The ratio of the radioactivity of the addition of the test substance to the addition of DMSO was determined, and IC50 was calculated from inhibition at each concentration.

Test [2] has as its target T2, PKC α (Homo sapiens, UniProt P17252).
T2 construct: purchased CALBIOCHEM
The test is described as above. It counts as biochemical. The procedure:
as §1, §2

[3] abbreviates: Protein Kinase C, Human Recombinant, test substance 1 nM-10 µM, 37°C, 15 minutes, read-out: Inhibition of PKC activity IC50 PKC β II.
Setting [4] is: Protein Kinase C, Human Recombinant, test substance 1 nM-10 µM, 37°C, 15 minutes, read-out: Inhibition of PKC activity IC50 PKC α.

T1 sequence (P05771 other isoform, or with tags, fused parts or gaps): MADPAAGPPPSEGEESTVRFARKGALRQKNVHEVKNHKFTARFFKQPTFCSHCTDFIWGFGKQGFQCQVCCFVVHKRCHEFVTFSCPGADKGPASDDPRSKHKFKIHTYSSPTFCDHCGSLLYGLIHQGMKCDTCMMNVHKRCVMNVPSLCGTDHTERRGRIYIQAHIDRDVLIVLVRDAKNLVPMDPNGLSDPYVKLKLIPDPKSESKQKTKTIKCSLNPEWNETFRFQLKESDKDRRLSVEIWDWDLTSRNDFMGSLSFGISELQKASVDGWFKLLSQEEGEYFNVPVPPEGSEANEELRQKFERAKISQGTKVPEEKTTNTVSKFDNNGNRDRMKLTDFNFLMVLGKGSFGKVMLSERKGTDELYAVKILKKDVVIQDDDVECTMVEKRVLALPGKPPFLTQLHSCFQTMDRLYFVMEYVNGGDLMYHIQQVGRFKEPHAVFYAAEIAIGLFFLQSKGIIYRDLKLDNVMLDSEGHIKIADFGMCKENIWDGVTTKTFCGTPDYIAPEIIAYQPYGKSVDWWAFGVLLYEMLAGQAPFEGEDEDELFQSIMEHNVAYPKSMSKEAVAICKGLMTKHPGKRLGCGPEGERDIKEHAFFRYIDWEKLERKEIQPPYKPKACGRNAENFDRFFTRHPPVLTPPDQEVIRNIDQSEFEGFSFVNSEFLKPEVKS

A word on the IC50: it is the point on the concentration scale where inhibition reaches its midpoint. For `O=C1NC(=O)C(c2cn(CC(O)CO)c3ccccc23)=C1Nc1ccccc1` (centres unmarked) [Example 2-44, 3-[1-(2,3-dihydroxypropyl)-1H-indol-3-yl]-4-(phenylamino)-1H-pyrrole-2,5-dione], the “Ratio α/β” value in test [1] is listed as 31. Further, the IC50 in test [1] (setting [3]) stood at 261 nM; in test [2] (setting [4]) it was 8160 nM.

`O=C1NC(=O)C(c2cn(CCN3CCC(O)CC3)c3ccccc23)=C1Nc1ccccc1` [Example 2-47, 3-[1-{2-(4-hydroxypiperidino)ethyl}-1H-indol-3-yl]-4-(phenylamino)-1H-pyrrole-2,5-dione]: the “Ratio α/β” value in test [1] was found to be 36. Besides, the IC50 turned out to be 66 nM in test [1] (setting [3]) and 2340 nM in test [2] (setting [4]).

For `O=C1NC(=O)C(c2cn(CCCN3CCC(Cc4ccccc4)CC3)c3ccccc23)=C1Nc1ccccc1` [Example 2-48, 3-[1-{3-(4-benzylpiperidino)propyl}-1H-indol-3-yl]-4-(phenylamino)-1H-pyrrole-2,5-dione], the “Ratio α/β” value in test [1] came to 77. Moreover, the IC50 was 18 nM in test [1] (setting [3]) and 1390 nM in test [2] (setting [4]).

Consider `O=C1NC(=O)C(c2cn(CCCN3CCC(N4CCCC4)CC3)c3ccccc23)=C1Nc1ccccc1` [Example 2-49, 3-[1-(3-(4-pyrrolidinylpiperidino)propyl}-1H-indol-3-yl]-4-(phenylamino)-1H-pyrrole-2,5-dione], for which the IC50 in test [1] was 8 nM; in test [2], 723 nM.

`O=C1NC(=O)C(c2cn(CCCN3CCC(CO)CC3)c3ccccc23)=C1Nc1ccccc1` [Example 2-50, 3-[1-{3-[4-(hydroxymethyl)piperidino]propyl}-1H-indol-3-yl]-4-(phenylamino)-1H-pyrrole-2,5-dione]: in test [1], the “Ratio α/β” value turned out to be 47. The IC50 in test [1] (setting [3]) worked out at 19 nM; in test [2] (setting [4]), 886 nM.

`CC(C)(C)OC(=O)C1CCN(CCCn2cc(C3=C(Nc4ccccc4)C(=O)NC3=O)c3ccccc32)CC1` [Example 2-51, 3-[1-{3-[4-(tert-butoxycarbonyl)piperidino]propyl}-1H-indol-3-yl]-4-(phenylamino)-1H-pyrrole-2,5-dione]: the “Ratio α/β” value in test [1] is given as 38. For the same compound, the IC50 in test [1] (setting [3]) was 27 nM; in test [2] (setting [4]) it was 1020 nM.

Turning to `Cc1c(C2=C(Nc3ccccc3)C(=O)NC2=O)c2ccccc2n1CCCN1CCCCC1` [Example 2-53, 3-[2-methyl-1-(3-piperidinopropyl)-1H-indol-3-yl]-4-(phenylamino)-1H-pyrrole-2,5-dione], in test [1], the “Ratio α/β” value amounted to 102. The IC50 is 98 nM in test [1] (setting [3]) and above 10000 nM in test [2] (setting [4]).

Turning to `Cc1c(C2=C(Nc3ccccc3)C(=O)NC2=O)c2ccccc2n1CCCN(C)C` [Example 2-54, 3-[1-(3-dimethylaminopropyl)-2-methyl-1H-indol-3-yl]-4-(phenylamino)-1H-pyrrole-2,5-dione], the “Ratio α/β” value in test [1] was 109. In addition, the IC50 in test [1] (setting [3]) was 61 nM; in test [2] (setting [4]), 6670 nM.

With `Cc1c(C2=C(Nc3ccccc3)C(=O)NC2=O)c2ccccc2n1CCCN1CCCC1` [Example 2-55, 3-[2-methyl-1-(3-pyrrolidin-1-ylpropyl)-1H-indol-3-yl]-4-(phenylamino)-1H-pyrrole-2,5-dione], in test [1], the “Ratio α/β” value was found to be 104. Moreover, the IC50 is 96 nM in test [1] (setting [3]) and above 10000 nM in test [2] (setting [4]).

Consider `CCN(C)CCCn1c(C)c(C2=C(Nc3ccccc3)C(=O)NC2=O)c2ccccc21` [Example 2-56, 3-[1-{3-(ethylmethylamino)propyl}-2-methyl-1H-indol-3-yl]-4-(phenylamino)-1H-pyrrole-2,5-dione], for which the “Ratio α/β” value in test [1] stood at 65. Moreover, the figures for the IC50 in test [1] (setting [3]) and in test [2] (setting [4]) were 84 nM and 5490 nM, respectively.

As for `Cc1cn(CCCn2cc(C3=C(Nc4cccc(Cl)c4)C(=O)NC3=O)c3ccccc32)cn1` [Example 2-58, 3-[(3-chlorophenyl)amino]-4-[1-{3-(4-methyl-imidazol-1-yl)propyl}-1H-indol-3-yl]-1H-pyrrole-2,5-dione], the “Ratio α/β” value in test [1] was determined as 47. Besides, the IC50 was 18 nM in test [1] (setting [3]) and 842 nM in test [2] (setting [4]).
